Laboratory results: patent US20240239806A1, “COMPOUNDS, COMPOSITIONS AND METHODS OF TREATING DISORDERS” (Chengdu Anticancer Bioscience, Ltd., priority 2021, published 2024)
pEC50, pIC50: −log10 of the molar value. Read-outs that look alike come from different tables or passages of the source.

Legend:
[1] = system: cervical cancer cell line Hela; test: Soft agar colony formation assay; format: cell-based, human
Source text: (§1) Measuring the ability of cells to grow in soft agar has been popularly believed as the gold standard assay for cellular transformation in vitro. In the Soft Agar Assay, cells grow from single cells to cell colonies in a semi-solid agar solution that keeps them away from the solid surface and allows growth in an anchorage-independent way.
(§2) The anchorage-independent growth of cells is one of the hallmarks of cancer cells. Normal epithelial cells are supported by basement membranes that provide survival and proliferative signals while undergo a type of apoptosis called anoikis when lose their attachment to the extracellular matrix. Cancer cells, in contrast, evade detachment-induced apoptosis, leading to uncontrolled proliferation and metastasis. The Soft Agar Colony Formation Assay allows testing of the therapeutic efficacy of compounds against anchorage-independent 3D growth of cancer cells in vin. The assay was performed in 6-well plates with two layers of agar. For the first, 0.75% agar in DMEM medium was melted in a microwave oven and poured to form a bottom layer. Once solidified, 10-100K cells in 1 ml of DMEM containing 0.35% agar was added to form the top layer, which was later covered with 0.5 ml of DMEM. Cell culture medium was changed once every two days until colonies were ready to photograph. We test the antitumor activity of select compounds in soft agar colony formation assays. […] The suppression of growth of these three cancer cell lines in 3D culture is consistent with the potent impact of these compounds on cellular proliferation in 2D culture.

RPEMYC^H2B-GFP cells = test: Phenotypic screening assay (mitotic arrest, polyploidy); format: cell-based; settings: 1 nM to 30 μM; for pIC50: read-out: Proliferative arrest (>50%)
Procedure, shortened: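 RPE cells expressing MYC and H2B-EGFP treated with compound at 1 nM–30 μM; mitotic index scored at 24 h and polyploidy (DNA content) at 48 h by automated imaging, with reads at 24, 48 or 72 h. Hits show transient mitotic arrest followed by polyploid accumulation.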

NCI-H596 [2] = test: MTT assay of cellular proliferation; format: cell-based; settings: Homo sapiens, 50% inhibition of cellular proliferation
Description: (§3) Six lung cancer cell lines (NCI-H23, NCI-H460, NCI-H596, NCI-H2170, Calu-6 and A549), two colon cancer cell lines (HCT116 and SW460), one breast cancer cell line MDA-MB-231, one gastric cancer cell line NCI-N87, one prostate cancer cell line DU145, one cervical cancer cell line Hela, and one glioblastoma cell line T98G were obtained from ATCC. The T2 HCC cell line was derived from a mouse liver cancer model initiated by a transgene of MYC. All cell lines were cultured in DMEM (Gibco, Cleveland, TN, USA) supplemented with 5% fetal bovine serum (Gibco), penicillin (100 U/mL)—streptomycin (100 μg/mL) (Gibco, Cat. No. 15140-122), 2 mM L-glutamine (Gibco, 200 mM solution, Cat. No. 25030081), and 1 mM sodium pyruvate (Gibco, 100 mM solution, Cat. No. 11360070) at 37° C. in a humidified incubator that was maintained at 5% CO2.
(§4) The MTT assay measures cellular metabolic activity as a proxy for cell viability and involves the conversion of the water-soluble yellow dye MTT [3-(4,5-dimethylthiazol-2-yl)-2,5-diphenyltetrazolium bromide] into an insoluble purple formazan by the action of mitochondrial reductase. Formazan is then solubilized and its concentration is determined by measuring the optical density (OD) value at a wavelength of 570 nm. The value is in proportional to the number of live cells with excellent linearity up to ˜10^6 cells per well. The MTT assay was used to determine the EC50 value, the concentration of a compound that leads to 50% inhibition of cellular proliferation. Briefly, cells were split when growing to the mid-Log phase. Cells in 100 μL of culture medium were seeded into each well of 96-well microplates and cultivated for 15-24 hours to reach a confluence of 20-30% and were then exposed to drugs at concentrations ranging from 1 nM to 30 μM. At the endpoint, 20 μL of a MTT stock solution in DMSO (5 mg/mL) was added to each well that contains 100 μL of DMEM. The microplates were left in the cell culture incubator for 3-4 h before subjected to solubilization and determination of formazan at A570 in a microplate reader (BioTek ELX808iu). […] Therefore, these compounds might hold a broad utility in the treatment of a large variety of human malignancies.

Hela [3] = test: MTT assay of cellular proliferation; format: cell-based; settings: Homo sapiens, 50% inhibition of cellular proliferation
Description: as §3, §4

NCI-H23 [4] = test: MTT assay of cellular proliferation; format: cell-based; settings: Homo sapiens, 50% inhibition of cellular proliferation
Description: as §3, §4

HCT116 [5] = test: MTT assay of cellular proliferation; format: cell-based; settings: Homo sapiens, HCT-116, 50% inhibition of cellular proliferation
Description: as §3, §4

NCI-H460 [6] = test: MTT assay of cellular proliferation; format: cell-based; settings: Homo sapiens, 50% inhibition of cellular proliferation
Description: as §3, §4

T98G [7] = test: MTT assay of cellular proliferation; format: cell-based; settings: Homo sapiens, 50% inhibition of cellular proliferation
Description: as §3, §4

MDA-MB-231 [8] = test: MTT assay of cellular proliferation; format: cell-based; settings: Homo sapiens; MDA-MB-231, MTT, 50% inhibition of cellular proliferation
Description: as §3, §4

T2 HCC [9] = test: MTT assay of cellular proliferation; format: cell-based; settings: Mus musculus, 50% inhibition of cellular proliferation
Description: as §3, §4

NCI-H596 [10] = test: MECP in cancer cell line; format: cell-based; settings: Homo sapiens
Description: as §3
(§5) We have previously developed a mechanism-informed phenotypic screening assay to identify novel antimitotic agents. Equipped with a prior understanding of the versatile functions of the chromosomal passenger protein (CPP) complex in orchestrating karyokinesis and cytokinesis, the screening assay is to score for phenotypes typically seen when the CPP complex is disabled. Specifically, the parameters for a positive hit are a temporary elevation of mitotic index (MI) at 24 hours of drug treatment and an accumulation of polyploid cells at 48 hours of drug treatment, indicative of mitotic arrest and cytokinetic failure respectively. These parameters exclude compounds that elicit only a prolonged arrest of cells in mitosis, a phenotype typically provoked by spindle toxins. The screening procedure is briefly summarized here. RPEMYC^H2B-GFP cells engineered to express a Histone 2B-EGFP fusion protein were passaged as batches of 96-well plates, 18-24 hours before exposure to the chemical compounds of the present disclosure at concentrations from 1 nM to 30 μM. At 24, 48 or 72 hours after initiation of treatment, cells were analyzed for either an arrest in mitosis or a change in DNA content by GE IN-Cell Analyzer 2000. As set forth in Table 2 below, a value of greater than or equal to 1 nM and less than or equal to 1.0 μM is marked “A”; a value greater than 1.00 μM and less than or equal to 10.0 μM is marked “B”; a value greater than 10.0 μM and less than or equal to 30.0 μM is marked “C”; and a value greater than 30.0 μM is marked “D.”

Hela [11] = test: MECP in cancer cell line; format: cell-based; settings: Homo sapiens
Description: as §3, §5

HCT116 [12] = test: MECP in cancer cell line; format: cell-based; settings: Homo sapiens, HCT-116
Description: as §3, §5

NCI-H460 [13] = test: MECP in cancer cell line; format: cell-based; settings: Homo sapiens
Description: as §3, §5

T98G [14] = test: MECP in cancer cell line; format: cell-based; settings: Homo sapiens
Description: as §3, §5

MDA-MB-231 [15] = test: MECP in cancer cell line; format: cell-based; settings: Homo sapiens
Description: as §3, §5

T2 HCC [16] = test: MECP in cancer cell line; format: cell-based; settings: Mus musculus
Description: as §3, §5

Human Cancer Cells = test: Anchorage-independent growth in 3D culture (FIG. 3); format: cell-based; settings: FIG. 3 legend, cell line not named
Source text: as §1, §2

NCI-H23 [17] = test: MECP in cancer cell line; format: cell-based; settings: Homo sapiens
Description: as §3, with “CO2. […]” for “CO2.”

A549 [18] = test: MTT assay of cellular proliferation; format: cell-based; settings: Homo sapiens, 50% inhibition of cellular proliferation
Description: as §3, §4

SW480 [19] = test: MTT assay of cellular proliferation; format: cell-based; settings: Homo sapiens, 50% inhibition of cellular proliferation
Description: as §3, §4

NCI-N87 [20] = test: MTT assay of cellular proliferation; format: cell-based; settings: Homo sapiens, 50% inhibition of cellular proliferation
Description: as §3, §4

A549 [21] = test: MECP in cancer cell line; format: cell-based; settings: Homo sapiens
Description: as §3, §5

SW480 [22] = test: MECP in cancer cell line; format: cell-based; settings: Homo sapiens
Description: as §3, §5

NCI-N87 [23] = test: MECP in cancer cell line; format: cell-based; settings: Homo sapiens
Description: as §3, with “CO2. […]” for “CO2.”

[24] = read-out: Min. Effective conc. for Polyploidy (≥5%)

pEC50 (Hela [3]) | pEC50 (NCI-H23 [4]) | pEC50 (HCT116 [5]) | pEC50 (MDA-MB-231 [8]) | pEC50 (T2 HCC [9]) | pEC50 (A549 [18]) | pEC50 (SW480 [19]) | SMILES | minimal effective concentration (RPEMYC^H2B-GFP cells; [24]) | minimal effective concentration (RPEMYC^H2B-GFP cells; read-out: Mitotic Arrest (≥5%)) | pIC50 (RPEMYC^H2B-GFP cells) | minimal effective concentration (Hela [11]) | minimal effective concentration (HCT116 [12]) | minimal effective concentration (MDA-MB-231 [15]) | minimal effective concentration (T2 HCC [16]) | minimal effective concentration (NCI-H23 [17]) | pEC50 (NCI-N87 [20]) | minimal effective concentration (A549 [21]) | minimal effective concentration (SW480 [22]) | minimal effective concentration (NCI-N87 [23]) | also measured
6.00 to 9.00 | 6.00 to 9.00 | 6.00 to 9.00 | 6.00 to 9.00 | 6.00 to 9.00 |  |  | COC(=O)c1cc(OC)cc(Oc2ccnc3ccccc23)c1 [Compound 8, Methyl 3-methoxy-5-(quinolin-4-yloxy)benzoate] | 0.001 to 1 µM | 0.001 to 1 µM | 6.00 to 9.00 | 0.001 to 1 µM | 0.001 to 1 µM | 0.001 to 1 µM | 0.001 to 1 µM | 0.001 to 1 µM |  |  |  |  | anchorage-independent growth in soft agar [1]: effectively suppressed the anchorage-independent growth; pEC50 (NCI-H596 [2]): 5.00 to 6.00; pEC50 (NCI-H460 [6]): < 4.52; pEC50 (T98G [7]): 5.00 to 6.00; minimal effective concentration (NCI-H596 [10]): 0.001 to 1 µM; minimal effective concentration (NCI-H460 [13]): 1 to 10 µM; minimal effective concentration (T98G [14]): 1 to 10 µM; Anchorage-independent Growth of Human Cancer Cells in 3D Culture (Human Cancer Cells): Suppress the Anchorage-independent Growth
6.00 to 9.00 | 6.00 to 9.00 | 6.00 to 9.00 | 6.00 to 9.00 | 6.00 to 9.00 | 6.00 to 9.00 | 6.00 to 9.00 | COc1cc(Oc2ncnc3cc[nH]c23)cc(-n2cccn2)c1 [Compound 35, 4-(3-methoxy-5-(1H-pyrazol-1-yl)phenoxy)-5H-pyrrolo[3,2-d]pyrimidine] | 0.001 to 1 µM | 0.001 to 1 µM | 6.00 to 9.00 | 0.001 to 1 µM | 0.001 to 1 µM | 0.001 to 1 µM | 0.001 to 1 µM | 0.001 to 1 µM | 6.00 to 9.00 | 0.001 to 1 µM | 0.001 to 1 µM | 0.001 to 1 µM | 
6.00 to 9.00 | 6.00 to 9.00 | 6.00 to 9.00 | 6.00 to 9.00 | 6.00 to 9.00 | 6.00 to 9.00 | 6.00 to 9.00 | COc1cc(Oc2ncnc3ccsc23)cc(-n2cccn2)c1 [Compound 38, 4-(3-methoxy-5-(1H-pyrazol-1-yl)phenoxy)thieno[3,2-d]pyrimidine] | 0.001 to 1 µM | 0.001 to 1 µM | 6.00 to 9.00 | 0.001 to 1 µM | 0.001 to 1 µM | 0.001 to 1 µM | 0.001 to 1 µM | 0.001 to 1 µM | 6.00 to 9.00 | 0.001 to 1 µM | 0.001 to 1 µM | 0.001 to 1 µM | 
6.00 to 9.00 | 6.00 to 9.00 | 6.00 to 9.00 | 6.00 to 9.00 | 6.00 to 9.00 | 6.00 to 9.00 | 6.00 to 9.00 | COC(=O)c1ccc2nccc(Oc3cc(NC(C)=O)cc(OC)c3)c2c1 [Compound 42, methyl 4-(3-acetamido-5-methoxyphenoxy)quinoline-6-carboxylate] | 0.001 to 1 µM | 0.001 to 1 µM | 6.00 to 9.00 | 0.001 to 1 µM | 0.001 to 1 µM | 0.001 to 1 µM | 0.001 to 1 µM | 0.001 to 1 µM | 6.00 to 9.00 | 0.001 to 1 µM | 0.001 to 1 µM | 0.001 to 1 µM | 
